Target: Helios (Homo sapiens, UniProt Q96SW2+Q9UKS7)
Experiment: Helios Human T Regulatory Cells Degradation Assay
Type: cell-based
Design: fluorescently labelled antibodies against Helios in 1× Permeabilization buffer; endogenous in cells; host or cells: cryopreserved human T regulatory cells
Conditions: cryopreserved human T regulatory cells, incubated 20 hours, Helios-APC antibody staining, flow cytometry; read-out: hTreg Helios DC50
Description: Cryopreserved human T regulatory cells were thawed in RPMI+10% FBS+20 ng/mL IL-2. After being spun at 1200 rpm for 5 mins, the cells were resuspended in RPMI+10% FBS+20 ng/mL and rested at 37° C. with 5% CO2 for 3 hours. […] Cell cultures were incubated for 20 hours at 37° C. and 5% CO2. In order to facilitate analysis, cell cultures were spun down at 1200 rpm for 5 minutes and the supernatant was discarded using an EL406 plate washer. After washing three times with 70 μL PBS, cell pellets were resuspended in 50 μL of near IR viability staining solution (Life Technologies, Cat #L34975) and incubated for 30 minutes on ice protected from light. Cells were washed three times with 70 μL PBS+0.5% BSA using an EL406 plate washer. […] Subsequently, 30 μL of 1× Permeabilization buffer was added prior to centrifuging the cells and discarding the supernatant. Stained cells were resuspended in 30 μL of flow cytometry staining buffer (PBS+0.5% BSA) and analyzed using an Intellicyt Ique Plus flow cytometer.

Sequence of Helios (Q9UKS7 whole entry): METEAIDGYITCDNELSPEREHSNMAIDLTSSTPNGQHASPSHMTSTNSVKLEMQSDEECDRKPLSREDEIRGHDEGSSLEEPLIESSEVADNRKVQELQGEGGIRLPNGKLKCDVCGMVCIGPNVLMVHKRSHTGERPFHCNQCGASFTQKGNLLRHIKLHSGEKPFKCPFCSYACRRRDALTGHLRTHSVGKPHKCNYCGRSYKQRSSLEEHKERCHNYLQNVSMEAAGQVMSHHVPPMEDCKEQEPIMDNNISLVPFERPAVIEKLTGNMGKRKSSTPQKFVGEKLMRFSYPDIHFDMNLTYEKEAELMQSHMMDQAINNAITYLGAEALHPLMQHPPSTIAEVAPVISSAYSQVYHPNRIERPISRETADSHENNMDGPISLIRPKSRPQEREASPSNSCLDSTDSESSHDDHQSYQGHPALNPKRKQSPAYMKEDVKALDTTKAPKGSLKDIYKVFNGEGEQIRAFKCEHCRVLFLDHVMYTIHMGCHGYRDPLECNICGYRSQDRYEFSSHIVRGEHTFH
Sequence of Helios (Q96SW2 whole entry): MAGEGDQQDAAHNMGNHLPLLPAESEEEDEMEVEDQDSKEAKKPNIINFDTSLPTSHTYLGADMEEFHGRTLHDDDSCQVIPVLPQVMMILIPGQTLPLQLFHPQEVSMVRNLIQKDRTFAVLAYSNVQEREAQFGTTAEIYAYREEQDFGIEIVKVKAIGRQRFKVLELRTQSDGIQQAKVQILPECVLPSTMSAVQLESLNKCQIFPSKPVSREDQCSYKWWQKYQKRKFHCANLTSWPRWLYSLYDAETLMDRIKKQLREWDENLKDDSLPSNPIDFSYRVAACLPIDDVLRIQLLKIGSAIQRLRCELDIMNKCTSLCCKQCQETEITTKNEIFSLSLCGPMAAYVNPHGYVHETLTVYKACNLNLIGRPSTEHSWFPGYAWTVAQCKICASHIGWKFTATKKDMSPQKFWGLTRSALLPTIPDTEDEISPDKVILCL
Sequence of Helios (Q16531 whole entry partner): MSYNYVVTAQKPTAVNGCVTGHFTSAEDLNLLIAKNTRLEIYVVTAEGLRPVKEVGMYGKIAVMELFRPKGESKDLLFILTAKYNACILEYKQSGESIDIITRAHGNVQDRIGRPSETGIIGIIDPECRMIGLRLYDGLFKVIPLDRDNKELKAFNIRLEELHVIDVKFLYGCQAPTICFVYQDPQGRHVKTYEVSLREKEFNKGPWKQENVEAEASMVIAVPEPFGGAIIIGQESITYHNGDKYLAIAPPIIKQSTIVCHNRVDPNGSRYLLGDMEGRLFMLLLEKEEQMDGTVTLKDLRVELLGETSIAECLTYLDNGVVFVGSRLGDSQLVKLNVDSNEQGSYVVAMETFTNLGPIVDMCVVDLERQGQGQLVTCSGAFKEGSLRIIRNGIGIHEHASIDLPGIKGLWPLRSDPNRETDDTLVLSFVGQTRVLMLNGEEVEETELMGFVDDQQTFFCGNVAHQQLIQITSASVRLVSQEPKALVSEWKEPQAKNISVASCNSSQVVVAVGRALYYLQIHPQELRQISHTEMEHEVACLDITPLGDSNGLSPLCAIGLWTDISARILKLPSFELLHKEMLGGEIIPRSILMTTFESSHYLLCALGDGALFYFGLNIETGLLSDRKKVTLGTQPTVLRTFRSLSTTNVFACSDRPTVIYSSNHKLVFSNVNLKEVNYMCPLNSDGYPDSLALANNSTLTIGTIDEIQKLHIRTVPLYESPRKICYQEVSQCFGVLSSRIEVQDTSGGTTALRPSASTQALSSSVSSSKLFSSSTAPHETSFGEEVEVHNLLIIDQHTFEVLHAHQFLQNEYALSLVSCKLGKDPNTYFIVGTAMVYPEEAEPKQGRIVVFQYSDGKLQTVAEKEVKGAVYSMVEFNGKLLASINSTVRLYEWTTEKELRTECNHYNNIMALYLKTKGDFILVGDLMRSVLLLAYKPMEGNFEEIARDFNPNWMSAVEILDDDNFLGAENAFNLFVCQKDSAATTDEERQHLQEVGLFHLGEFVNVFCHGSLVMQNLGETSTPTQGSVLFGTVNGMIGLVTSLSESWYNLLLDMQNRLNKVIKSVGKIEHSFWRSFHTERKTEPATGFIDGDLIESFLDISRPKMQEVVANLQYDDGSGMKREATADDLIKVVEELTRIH

| Structure (SMILES) | DC50 [nM] |
| --- | --- |
| CC1=CC2CN(Cc3ccnc(-c4ccc5c(c4)CN([C@H]4CCC(=O)NC4=O)C5=O)c3)CC2C1 (stereo partly drawn) [Example 148, (3S)-3-(5-(4-((5-methyl-3,3a,4,6a-tetrahydrocyclopenta[c]pyrrol-2(1H)-yl)methyl)pyridin-2-yl)-1-oxoisoindolin-2-yl)piperidine-2,6-dione] | 3.7 |
| COc1c(CN2CCC(C(C)(C)O)CC2)ccnc1-c1ccc2c(c1)CN(C1CCC(=O)NC1=O)C2=O (stereo not drawn) [Example 172, 3-(5-(4-((4-(2-hydroxypropan-2-yl)piperidin-1-yl)methyl)-3-methoxypyridin-2-yl)-1-oxoisoindolin-2-yl)piperidine-2,6-dione] | 5.2 |
| CC(C)(C)NC(=O)C1CCCN1Cc1ccnc(-c2ccc3c(c2)CN(C2CCC(=O)NC2=O)C3=O)c1 (stereo not drawn) [Example 188, N-(tert-butyl)-1-((2-(2-(2,6-dioxopiperidin-3-yl)-1-oxoisoindolin-5-yl)pyridin-4-yl)methyl)pyrrolidine-2-carboxamide] | 28.7 |
| O=C1CCC(N2Cc3cc(-c4nccc(CN5CCc6oncc6C5)c4F)ccc3C2=O)C(=O)N1 (stereo not drawn) [Example 259, 3-(5-(4-((6,7-dihydroisoxazolo[4,5-c]pyridin-5(4H)-yl)methyl)-3-fluoropyridin-2-yl)-1-oxoisoindolin-2-yl)piperidine-2,6-dione] | ≥ 10000 |
| Cc1cc(C2CCCN2Cc2ccnc(-c3ccc4c(c3)CN(C3CCC(=O)NC3=O)C4=O)c2F)on1 (stereo not drawn) [Example 244, 3-(5-(3-fluoro-4-((2-(3-methylisoxazol-5-yl)pyrrolidin-1-yl)methyl)pyridin-2-yl)-1-oxoisoindolin-2-yl)piperidine-2,6-dione] | 242 |
| CC(C)(O)C1CCN(Cc2cc(-c3ccc4c(c3)CN(C3CCC(=O)NC3=O)C4=O)ncc2F)CC1 (stereo not drawn) [Example 92, 3-(5-(5-fluoro-4-((4-(2-hydroxypropan-2-yl)piperidin-1-yl)methyl)pyridin-2-yl)-1-oxoisoindolin-2-yl)piperidine-2,6-dione] | 1.2 |
| O=C1CC[C@H](N2Cc3cc(-c4nccc(CN5CCC6(CCNC6=O)CC5)c4F)ccc3C2=O)C(=O)N1 [Example 150, (S)-3-(5-(3-fluoro-4-((1-oxo-2,8-diazaspiro[4.5]decan-8-yl)methyl)pyridin-2-yl)-1-oxoisoindolin-2-yl)piperidine-2,6-dione] | ≥ 10000 |
| COC(=O)N1CCCC12CCN(Cc1ccnc(-c3ccc4c(c3)CN(C3CCC(=O)NC3=O)C4=O)c1F)C2 (stereo not drawn) [Example 271, methyl 7-((2-(2-(2,6-dioxopiperidin-3-yl)-1-oxoisoindolin-5-yl)-3-fluoropyridin-4-yl)methyl)-1,7-diazaspiro[4.4]nonane-1-carboxylate] | ≥ 10000 |
| CC(C)(O)[C@@H]1CCN(Cc2ccnc(-c3ccc4c(c3)CN(C3CCC(=O)NC3=O)C4=O)c2F)C1 (stereo partly drawn) [Example 111, 3-(5-(3-fluoro-4-(((R)-3-(2-hydroxypropan-2-yl)pyrrolidin-1-yl)methyl)pyridin-2-yl)-1-oxoisoindolin-2-yl) piperidine-2,6-dione] | 10.4 |
| C[C@@H]1c2c(ccc(-c3cc(CN4CC[C@@H](Oc5ccccc5)C4)ccn3)c2F)C(=O)N1[C@H]1CCC(=O)NC1=O [Example 141, (S)-3-((R)-4-fluoro-3-methyl-1-oxo-5-(4-(((R)-3-phenoxypyrrolidin-1-yl)methyl)pyridin-2-yl)isoindolin-2-yl)piperidine-2,6-dione] | ≥ 10000 |
| COC(=O)N1CCC2(CN(Cc3ccnc(-c4ccc5c(c4)CN(C4CCC(=O)NC4=O)C5=O)c3F)C2)C1 (stereo not drawn) [Example 273, methyl 2-((2-(2-(2,6-dioxopiperidin-3-yl)-1-oxoisoindolin-5-yl)-3-fluoropyridin-4-yl)methyl)-2,6-diazaspiro[3.4]octane-6-carboxylate] | 280 |
| Cc1cnc(-c2ccc3c(c2)CN(C2CCC(=O)NC2=O)C3=O)cc1CN1CCC(C2CC2)C1 (stereo not drawn) [Example 169, 3-(5-(4-((3-cyclopropylpyrrolidin-1-yl)methyl)-5-methylpyridin-2-yl)-1-oxoisoindolin-2-yl)piperidine-2,6-dione] | 4 |
| CC(C)(C)OC(=O)N1C[C@@H]2CN(Cc3ccnc(-c4ccc5c(c4)CN([C@H]4CCC(=O)NC4=O)C5=O)c3F)C[C@H]2C1 [Example 154, tert-butyl (3aS,6aS)-5-((2-(2-((S)-2,6-dioxopiperidin-3-yl)-1-oxoisoindolin-5-yl)-3-fluoropyridin-4-yl)methyl)hexahydropyrrolo[3,4-c]pyrrole-2(1H)-carboxylate] | 284 |
| CC(C)(C)OC(=O)N1CCCC2(CN(Cc3ccnc(-c4ccc5c(c4)CN(C4CCC(=O)NC4=O)C5=O)c3F)C2)C1 (stereo not drawn) [Example 208, tert-butyl 2-((2-(2-(2,6-dioxopiperidin-3-yl)-1-oxoisoindolin-5-yl)-3-fluoropyridin-4-yl)methyl)-2,6-diazaspiro[3.5]nonane-6-carboxylate] | ≥ 10000 |
| CC(C)(O)C1CN(Cc2ccnc(-c3ccc4c(c3)CN(C3CCC(=O)NC3=O)C4=O)c2Cl)C1 (stereo not drawn) [Example 97, 3-(5-(3-chloro-4-((3-(2-hydroxypropan-2-yl)azetidin-1-yl)methyl)pyridin-2-yl)-1-oxoisoindolin-2-yl) piperidine-2,6-dione] | 17.1 |
| O=C1CC[C@H](N2Cc3cc(-c4cc(CN5CC6(CC(O)C6)C5)ccn4)ccc3C2=O)C(=O)N1 [Example 145, (S)-3-(5-(4-((6-hydroxy-2-azaspiro[3.3]heptan-2-yl)methyl)pyridin-2-yl)-1-oxoisoindolin-2-yl)piperidine-2,6-dione] | 0.7 |
| O=C1CCC(N2Cc3cc(-c4nccc(CN5CCC(F)(F)CC5)c4F)ccc3C2=O)C(=O)N1 (stereo not drawn) [Example 261, 3-(5-(4-((4,4-difluoropiperidin-1-yl)methyl)-3-fluoropyridin-2-yl)-1-oxoisoindolin-2-yl)piperidine-2,6-dione] | ≥ 10000 |
| O=C1CCC(N2Cc3cc(-c4nccc(CN5CCCC(O)(c6ccccc6)C5)c4F)ccc3C2=O)C(=O)N1 (stereo not drawn) [Example 250, 3-(5-(3-fluoro-4-((3-hydroxy-3-phenylpiperidin-1-yl)methyl)pyridin-2-yl)-1-oxoisoindolin-2-yl)piperidine-2,6-dione] | ≥ 10000 |
| O=C1CCC(N2Cc3c(ccc(-c4nccc(CN5CCc6c(ccnc6Cl)C5)c4F)c3F)C2=O)C(=O)N1 (stereo not drawn) [Example 283, 3-(5-(4-((5-chloro-3,4-dihydro-2,6-naphthyridin-2(1H)-yl)methyl)-3-fluoropyridin-2-yl)-4-fluoro-1-oxoisoindolin-2-yl) piperidine-2,6-dione] | ≥ 10000 |
| O=C1CC[C@H](N2Cc3cc(-c4nccc(CN5CC6CCCC6C5)c4F)ccc3C2=O)C(=O)N1 (stereo partly drawn) [Example 155, (3S)-3-(5-(3-fluoro-4-((hexahydrocyclopenta[c]pyrrol-2(1H)-yl)methyl)pyridin-2-yl)-1-oxoisoindolin-2-yl)piperidine-2,6-dione] | 10.9 |
| Cc1c2c(nn1C)CCN(Cc1ccnc(-c3ccc4c(c3)CN(C3CCC(=O)NC3=O)C4=O)c1F)C2 (stereo not drawn) [Example 265, 3-(5-(4-((2,3-dimethyl-2,4,6,7-tetrahydro-5H-pyrazolo[4,3-c]pyridin-5-yl)methyl)-3-fluoropyridin-2-yl)-1-oxoisoindolin-2-yl)piperidine-2,6-dione] | ≥ 10000 |
| CC1(C)CN(Cc2ccnc(-c3ccc4c(c3)CN(C3CCC(=O)NC3=O)C4=O)c2F)CCC1O (stereo not drawn) [Example 221, 3-(5-(3-fluoro-4-((4-hydroxy-3,3-dimethylpiperidin-1-yl)methyl)pyridin-2-yl)-1-oxoisoindolin-2-yl)piperidine-2,6-dione] | 13900 |
| CN(C1CN(Cc2ccnc(-c3ccc4c(c3)CN([C@H]3CCC(=O)NC3=O)C4=O)c2)C1)S(C)(=O)=O [Example 161, (S)—N-(1-((2-(2-(2,6-dioxopiperidin-3-yl)-1-oxoisoindolin-5-yl)pyridin-4-yl)methyl)azetidin-3-yl)-N-methylmethanesulfonamide] | 223 |
| O=C1CCC(N2Cc3cc(-c4cc(CN5C[C@@H]6C(CO)[C@@H]6C5)ccn4)ccc3C2=O)C(=O)N1 (stereo partly drawn) [Example 101, 3-(5-(4-(((1R,5S,6r)-6-(hydroxymethyl)-3-azabicyclo[3.1.0]hexan-3-yl)methyl)pyridin-2-yl)-1-oxoisoindolin-2-yl)piperidine-2,6-dione] | 4.2 |
| Cc1nnc2n1CCN(Cc1ccnc(-c3ccc4c(c3)CN(C3CCC(=O)NC3=O)C4=O)c1F)C2 (stereo not drawn) [Example 262, 3-(5-(3-fluoro-4-((3-methyl-5,6-dihydro-[1,2,4]triazolo[4,3-a]pyrazin-7(8H)-yl)methyl)pyridin-2-yl)-1-oxoisoindolin-2-yl)piperidine-2,6-dione] | ≥ 10000 |
| O=C1CCC(N2Cc3cc(-c4nccc(CN5CCn6c(nnc6C(F)(F)F)C5)c4F)ccc3C2=O)C(=O)N1 (stereo not drawn) [Example 266, 3-(5-(3-fluoro-4-((3-(trifluoromethyl)-5,6-dihydro-[1,2,4]triazolo[4,3-a]pyrazin-7(8H)-yl)methyl)pyridin-2-yl)-1-oxoisoindolin-2-yl)piperidine-2,6-dione] | ≥ 10000 |
| O=C1CCC(N2Cc3cc(-c4nccc(CN5CC[C@H](CO)C5)c4F)ccc3C2=O)C(=O)N1 (stereo partly drawn) [Example 109, 3-(5-(3-fluoro-4-(((S)-3-(hydroxymethyl)pyrrolidin-1-yl)methyl)pyridin-2-yl)-1-oxoisoindolin-2-yl)piperidine-2,6-dione] | 21.3 |
